Source: patent US8142769B2, “Preparation and xenotransplantation of porcine islets” (Diabcell Pty Ltd, priority 2000, dated 2012)

System: porcine islets
Test: Static glucose stimulation (SGS): in vitro insulin secretion of porcine islets in culture
Type: cell-based
Description: Static glucose stimulation (SGS) is used to assess in vitro function of the porcine islets by exposing them to low and high concentrations of glucose and theophylline. Determination of the in vitro insulin secretory capacity is undertaken on both free islets (after 3 days in culture) and after their subsequent encapsulation.
Keep the cells 3 days in culture before Static Glucose Stimulation (SGS). SGS involves exposure of the cells to low and high concentration of glucose to check insulin production. […]
Islet endocrine function was assessed after 3 days in culture via static glucose stimulation.

[1] = Incubated 24 hrs with 1.0 ug/ml IgF-1

## CCN(CC)CC(=O)Nc1c(C)cccc1C [Lignocaine, reference compound]
Lignocaine during digestion, after 3 days in culture
  Increase in insulin secretion in response to glucose challenge: 3 fold
Islets isolated by Collagenase digestion, with or without 1 mM Lignocaine
  Insulin secretion in response to 19.4 mM Glucose + 10 mM Theophyline after 3 days culture post isolation: 163.8 uU/hr/100 IEQ

## Human Insulin-like Growth Factor I [IgF-1]
3 days post IgF-1 exposure
  Insulin secretion in response to 19.4 mM Glucose + 10 mM Theophylline, increase compared to control: 1.5-fold increase
14 days post IgF-1 exposure
  Insulin secretion in response to 19.4 mM Glucose + 10 mM Theophylline, increase compared to control: 1.3-fold increase
IgF-1 tested at 0.1 and 1.0 ug/ml
  Concentration in culture sufficient to produce optimal insulin secretion during glucose challenge: 0.1 µg/mL
Incubated 24 hrs with 0.1 ug/ml IgF-1, concentration comparison, different islet preparation
  Insulin secretion in response to 19.4 mM Glucose + 10 mM Theophylline after 3 days culture post isolation: 58 uU/hr/100 IEQ
Incubated 24 hrs with 0.1 ug/ml IgF-1 after isolation, control 75.2
  Insulin secretion in response to 19.4 mM Glucose + 10 mM Theophylline after 3 days culture post isolation: 236 uU/hr/100 IEQ
[1]
  Insulin secretion in response to 19.4 mM Glucose + 10 mM Theophylline 7 days post isolation: 57.5 uU/hr/100 IEQ
  Insulin secretion in response to 19.4 mM Glucose + 10 mM Theophylline after 3 days culture post isolation: 56.8 uU/hr/100 IEQ
Incubated 3 days with 0.1 ug/ml IgF-1 without Nicotinamide, media without nicotinamide alone 55.9
  Insulin secretion in response to 19.4 mM Glucose + 10 mM Theophylline after 3 days culture post isolation: 47.6 uU/hr/100 IEQ
Incubated 7 days with 0.1 ug/ml IgF-1
  Insulin secretion in response to 19.4 mM Glucose + 10 mM Theophylline 7 days post isolation: 58 uU/hr/100 IEQ
Porcine islets in culture exposed to IgF-1
  Increase of insulin response to glucose: ≤ 3 fold
Variations on the duration of IgF-1 exposure
  Benefit of culturing the islets beyond a 24 hrs period post isolation: no increased benefit

## IgF-2: insulin-like growth factor expressed in many cell types, used in islet culture at 0.1 ug/ml
0.1 ug/ml IgF-2, initial exposure of 24 hrs, transient to 3 days post exposure
  Effect on insulin production of porcine islet cells: appeared to increase insulin production
Incubated 24 hrs with 0.1 ug/ml IgF-2 day 1, control 75.2
  Insulin secretion in response to 19.4 mM Glucose + 10 mM Theophyline after 3 days culture post isolation: 105.8/100 IEQ
Incubated 24 hrs with 0.1 ug/ml IgF-2 day 1, second table, control 39.8
  Insulin secretion in response to 19.4 mM Glucose + 10 mM Theophyline after 3 days culture post isolation: 32 uU/hr/100 IEQ
Incubated 7 days with 0.1 ug/ml IgF-2, control 39.8
  Insulin secretion in response to 19.4 mM Glucose + 10 mM Theophyline after 7 days culture post isolation: 38.4 uU/hr/100 IEQ
Prolonged exposure to IgF-2 beyond 24 hrs
  Effect on insulin production of the islet cells in response to glucose: failed to increase
